Laboratory results reported in patent US10105395B2, “Microvesicles (MVs) derived from adult stem cells for use in the therapeutic treatment of a tumor disease” (Fresenius Medical Care Deutschland GmbH, priority 2010, dated 2018).

Legend:
Type in all cases: cell-based, human
HepG2 cells = test: TUNEL apoptotic assay, MVs from MSCs; conditions: 24 and 48 hours, compared to vehicle alone; doxorubicin 100 ng/ml
Procedure: (§1) HepG2, MCF-7, SKOV-3, KS cells, HUVECs or TECs were seeded at 8,000 cells/well into 96-well plated in DMEM (Sigma) with 10% FCS and in the presence of doxorubicin (100 ng/ml, Sigma) or different concentrations of MVs (10 and 30 μg/ml) pre-treated or not with RNase. Apoptosis was assessed by TUNEL assay (ApopTag Oncor, Gaithersburg, Md., USA). After 24 or 48 hours of treatment, the cells were washed with PBS, fixed in 1% paraformaldehyde pH 7.4 for 15 minutes at 4° C., washed twice in PBS and then post-fixed in pre-cooled ethanol-acetic acid 2:1 for 5 minutes at −20° C. The samples were treated with the enzyme terminal deoxynucleotidyl transferase (TdT). The cells were then treated with heated anti-digoxigenin conjugate with fluorescein and incubated for 30 minutes at room temperature. The samples were mounted in medium containing 1 μg/ml of propidium iodide and the cells analyzed by immunofluorescence. The results are expressed as the percentage of green fluorescence emitting cells (apoptotic cells) versus red fluorescence emitting cells (total cells).

[1] = system: KS cells (Kaposi's sarcoma cells); test: TUNEL apoptotic assay, MVs from MSCs; conditions: 24 and 48 hours, compared to vehicle alone; doxorubicin 100 ng/ml
Procedure: as §1

HepG2 hepatoma cell line = test: TUNEL apoptosis assay, MVs from HLSCs; conditions: MVs 30 μg/ml; vincristine 100 ng/ml; 24 hours
Procedure: Apoptosis was evaluated using the terminal dUTP nickend labeling assay (ApoTag; Oncor, Gaithersburg, Md.). Cells ([…]) were cultured in 96-well plate, suspended in phosphate-buffered saline (PBS) and fixed in 1% paraformaldehyde in PBS, pH 7.4, for 15 minutes at 4° C. followed by pre-cooled ethanol/acetic acid (2:1) for 5 minutes at −20° C. Cells were treated with terminal deoxynucleotide transferase enzyme and incubated in a humidified chamber for 1 hour at 37° C. and then treated with warmed fluorescein isothiocyanate-conjugated antidigoxigenin for 30 minutes at room temperature. After washing, samples were mounted in a medium containing […] of propidium iodide and the cells were analyzed by immunofluorescence.
The ability of HLSC-derived MVs to induce apoptosis on HepG2 was evaluated. Briefly, HepG2 were seeded at a density of 8,000 cells/well into 96-well plates in DMEM with 10% FCS and apoptosis was induced by culture in the absence of FCS, by treatment with vincristine (100 ng/ml), or doxorubicin (50 ng/ml), two mitotic inhibitors used in cancer chemotherapy, or by MV treatment (30 μg/ml). […] Apoptosis was evaluated using the TUNEL assay analysis at […].

| SMILES | apoptosis of HepG2 cells (Tunel assay) (HepG2 cells) | apoptosis of KS cells (Tunel assay) [1] | HepG2 apoptosis (TUNEL assay) (HepG2 hepatoma cell line) |
| --- | --- | --- | --- |
| COc1cccc2c1C(=O)c1c(O)c3c(c(O)c1C2=O)C[C@@](O)(C(=O)CO)C[C@@H]3O[C@H]1C[C@H](N)[C@H](O)[C@H](C)O1 [doxorubicin] | apoptosis induced by doxorubicin | apoptosis induced by doxorubicin |  |
| CC[C@]1(O)C[C@H]2CN(CCc3c([nH]c4ccccc34)[C@@](C(=O)OC)(c3cc4c(cc3OC)N(C=O)[C@H]3[C@@](O)(C(=O)OC)[C@H](OC(C)=O)[C@]5(CC)C=CCN6CC[C@]43[C@@H]65)C2)C1 [vincristine] |  |  | induced by vincristine |
